Assay results published in US11214803B2, “Modulators of YAP1 expression” (Ionis Pharmaceuticals, Inc., priority 2019, dated 2022).

Columns and labels:
[1] = Tolerability in Sprague-Dawley rats, body and organ weights (Example 22); format: in vivo; settings: male Sprague-Dawley rats, 50 mg/kg s.c. weekly for 6 weeks (7 doses); for Kidney weight / Liver weight / Spleen weight: end of study; for body weight: terminal, prior to necropsy
Method: Terminal body weight was measured prior to necropsy. Ionis oligonucleotides that caused any changes in organ weights outside the expected range for modified oligonucleotides were excluded from further studies.

[2] = system: Yap1 mRNA; assay: Yap1 mRNA in SCC25 cells, RNA analysis (Example 25); format: cell-based, human; settings: free uptake, 48 hours, RTS4814, normalized to actin-beta
Method: (§1) Modified oligonucleotides described in the studies above were tested at various doses in squamous cell carcinoma cell SCC25. A control oligonucleotide 792169 (a 3-10-3 cET gapmer with a full phosphorothioate backbone, […], designated herein as SEQ ID No.: 2940; is not complementary to any known human gene) was also tested.
Cultured SCC25 cells at a density of 5,000 cells per well were treated using free uptake with modified oligonucleotides diluted to concentrations described in the tables below. After approximately 48 hours, Yap1 mRNA levels were measured as previously described using the Human Yap1 primer-probe set RTS4814. Yap1 mRNA levels were normalized to actin-beta content, as measured by primer probe set RTS5002 (forward sequence […], designated herein as SEQ ID NO.: 20; reverse sequence […], designated herein as SEQ ID NO.: 21; probe sequence […], designated herein as SEQ ID NO.: 22). Results are presented in the tables below as percent control of the amount of Yap1 mRNA relative to untreated control cells (% UTC).

[3] = system: SCC25 cells; assay: Cell proliferation assay in SCC25 cells, CellTiter-Glo (Example 25); format: cell-based, human; settings: free uptake, 144 hours
Method: as §1
Cultured SCC25 cells at a density of 1,000 cells/well were treated using free uptake with modified oligonucleotides diluted to concentrations described in the tables below. After approximately 144 hours, cell proliferation was measured using the luminescent cell viability CellTiter-Glo® 2.0 Assay (Promega). Results are presented in the tables below as percent control of the amount of luminescence in samples treated with modified oligonucleotides relative to untreated control cells (% UTC).

[4] = system: Yap1 mRNA; assay: Inhibition of human Yap1 mRNA in SNU449 hepatocellular carcinoma xenograft tumors (Example 26); format: in vivo; settings: SNU449 xenografts in NSG mice, 50 mg/kg twice weekly for five days, relative to PBS treated animals
In short: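 Female NSG mice bearing subcutaneous SNU449 xenografts (about 100 mm^3) dosed with modified oligonucleotides at 50 mg/kg twice weekly for five days, four per group. Tumour Yap1 mRNA measured by RT-qPCR, normalized to actin-beta, expressed as % of PBS-treated controls.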

[5] = Cynomolgus monkey tolerability, body and organ weight measurements (Example 34); format: in vivo; settings: cynomolgus monkeys, 35 mg/kg subcutaneously; for Heart weight / Kidney weight / Liver with gallbladder weight / Spleen weight: necropsy; for Terminal Body Weight: prior to necropsy
In short: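 Monkeys given modified oligonucleotides, observed twice daily, and euthanized on day 86, about 48 h after the last dose. Terminal body weight taken before necropsy; organ weights measured.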

[6] = Cynomolgus monkey tolerability, hematology (Example 34); format: in vivo, cynomolgus monkeys; settings: for BAS / EOS / HCT / HGB / LUC / LYM / MCH / MCHC / MCV / MON / NEU / PLT / RBC / RCDW / Retic / WBC: cynomolgus monkey, in vivo, sc, 35 mg/kg; for MPV: cynomolgus monkeys, 35 mg/kg subcutaneously, day 44
In short: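 On day 44, blood from oligonucleotide-treated cynomolgus monkeys was collected into K2-EDTA. An automated analyzer measured red cell indices, reticulocytes, platelets and MPV, and total and differential white cell counts.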

[7] = rat, in vivo, sc, 50 mg/kg
Method: Male Sprague-Dawley rats were maintained on a 12-hour light/dark cycle and fed ad libitum with Purina normal rat chow. Groups of 4 Sprague-Dawley rats each were weekly injected subcutaneously with 50 mg/kg of Ionis oligonucleotide for 6 weeks (total 7 doses). Forty-eight hours after the last dose, the rats were euthanized; and organs, urine and plasma were harvested for further analysis.
To evaluate the effect of Ionis oligonucleotides on kidney function, urinary levels of total protein and creatinine were measured using an automated clinical chemistry analyzer (Hitachi Olympus AU400c, Melville, N.Y.).

[8] = Cynomolgus monkey tolerability, kidney and liver function markers (Example 34); settings: cynomolgus monkeys, 35 mg/kg subcutaneously, day 44
Method: Prior to the study, the monkeys were kept in quarantine during which the animals were observed daily for general health. The monkeys were 2-4 years old and weighed 2-4 kg. Eleven groups of 4 randomly assigned male cynomolgus monkeys each were injected subcutaneously with Ionis oligonucleotide or saline in a clock-wise rotation between four different sites on the back. Following loading doses on days 1, 3, 5 and 7, the monkeys were dosed once per week (on days 14, 21, 28, 35, and 42) with 35 mg/kg of Ionis oligonucleotide.
To evaluate the effect of Ionis oligonucleotides on hepatic and kidney function, blood samples were collected from all the study groups on day 44. The monkeys were fasted overnight prior to blood collection. Blood was collected in tubes without anticoagulant for serum separation. The tubes were kept at room temperature for a minimum of 90 minutes and then centrifuged at 3000 rpm for 10 minutes to obtain serum. Levels of various liver function markers were measured using a Toshiba 200FR NEO chemistry analyzer (Toshiba Co., Japan).

1197270 (TTAAAGTGTATGTCAG; cEt gapmer with 2'-OMe nucleoside, phosphorothioate, further chemistry not given here) [compound 1197270]
Kidney weight [1]: 3.6 g
Liver weight [1]: 15 g
Spleen weight [1]: 2.0 g
body weight [1]: 374 g
Yap1 mRNA, % UTC ([2]; 0.04 μM): 48 % UTC
Yap1 mRNA, % UTC ([2]; 0.2 μM): 24 % UTC
Yap1 mRNA, % UTC ([2]; 1 μM): 12 % UTC
Yap1 mRNA, % UTC ([2]; 5 μM): 7 % UTC
cell proliferation (luminescence) % UTC ([3]; 0.04 μM): 75 % UTC
cell proliferation (luminescence) % UTC ([3]; 0.2 μM): 40 % UTC
cell proliferation (luminescence) % UTC ([3]; 1 μM): 22 % UTC
cell proliferation (luminescence) % UTC ([3]; 5 μM): 14 % UTC
Yap1 mRNA in tumors, % control [4]: 54 % control
Heart weight [5]: 10 g
Kidney weight [5]: 17 g
Liver with gallbladder weight [5]: 73 g
Spleen weight [5]: 4 g
Terminal Body Weight [5]: 2852 g
BAS [6]: 0.4%
EOS [6]: 2.7%
HCT [6]: 44%
HGB [6]: 12 g/dL
LUC [6]: 1.2%
LYM [6]: 54%
MCH [6]: 22 pg
MCHC [6]: 28 g/dL
MCV [6]: 79 fL
MON [6]: 3.5%
NEU [6]: 38%
PLT [6]: 452 10^3/μL
RBC [6]: 5.6e+06 µL⁻¹
RCDW [6]: 12%
Retic [6]: 1.1%
WBC [6]: 10600 µL⁻¹
MPV [6]: 7.1 fL
URINE P/C ratio (total protein to creatinine ratio) [7]: 14
ALB [8]: 3.7 g/dL
ALP [8]: 1215 IU/L
ALT [8]: 84 IU/L
AST [8]: 78 IU/L
BUN [8]: 27 mg/dL
CREA [8]: 0.9 mg/dL
GGT [8]: 75 IU/L
GLO [8]: 3.1 g/dL
GLU [8]: 115 mg/dL
HDL [8]: 102 mg/dL
LDL [8]: 48 mg/dL
TBIL [8]: 0.2 mg/dL
TG [8]: 31 mg/dL
TP [8]: 6.8 g/dL

1198605 (GTAATATTGCAATCTG; modified gapmer, further chemistry not given here) [compound 1198605]
Kidney weight [1]: 3.6 g
Liver weight [1]: 18 g
Spleen weight [1]: 2.1 g
body weight [1]: 372 g
Yap1 mRNA, % UTC ([2]; 0.04 μM): 48 % UTC
Yap1 mRNA, % UTC ([2]; 0.2 μM): 23 % UTC
Yap1 mRNA, % UTC ([2]; 1 μM): 10 % UTC
Yap1 mRNA, % UTC ([2]; 5 μM): 5 % UTC
cell proliferation (luminescence) % UTC ([3]; 0.04 μM): 77 % UTC
cell proliferation (luminescence) % UTC ([3]; 0.2 μM): 39 % UTC
cell proliferation (luminescence) % UTC ([3]; 1 μM): 23 % UTC
cell proliferation (luminescence) % UTC ([3]; 5 μM): 13 % UTC
Yap1 mRNA in tumors, % control [4]: 55 % control
Heart weight [5]: 11 g
Kidney weight [5]: 15 g
Liver with gallbladder weight [5]: 67 g
Spleen weight [5]: 4 g
Terminal Body Weight [5]: 2968 g
BAS [6]: 0.4%
EOS [6]: 0.8%
HCT [6]: 46%
HGB [6]: 13 g/dL
LUC [6]: 0.5%
LYM [6]: 51%
MCH [6]: 22 pg
MCHC [6]: 29 g/dL
MCV [6]: 75 fL
MON [6]: 2.8%
NEU [6]: 44%
PLT [6]: 385 10^3/μL
RBC [6]: 6.1e+06 µL⁻¹
RCDW [6]: 13%
Retic [6]: 1.1%
WBC [6]: 10500 µL⁻¹
MPV [6]: 8.1 fL
URINE P/C ratio (total protein to creatinine ratio) [7]: 28
ALB [8]: 4.0 g/dL
ALP [8]: 1445 IU/L
ALT [8]: 40 IU/L
AST [8]: 58 IU/L
BUN [8]: 22 mg/dL
CREA [8]: 0.8 mg/dL
GGT [8]: 85 IU/L
GLO [8]: 2.7 g/dL
GLU [8]: 69 mg/dL
HDL [8]: 115 mg/dL
LDL [8]: 57 mg/dL
TBIL [8]: 0.2 mg/dL
TG [8]: 25 mg/dL
TP [8]: 6.7 g/dL

1198623 (CTAAGTAAGGTTTCCC; modified gapmer, further chemistry not given here) [compound 1198623]
Kidney weight [1]: 3.6 g
Liver weight [1]: 20 g
Spleen weight [1]: 1.9 g
body weight [1]: 472 g
Yap1 mRNA, % UTC ([2]; 0.04 μM): 61 % UTC
Yap1 mRNA, % UTC ([2]; 0.2 μM): 31 % UTC
Yap1 mRNA, % UTC ([2]; 1 μM): 15 % UTC
Yap1 mRNA, % UTC ([2]; 5 μM): 10 % UTC
cell proliferation (luminescence) % UTC ([3]; 0.04 μM): 84 % UTC
cell proliferation (luminescence) % UTC ([3]; 0.2 μM): 55 % UTC
cell proliferation (luminescence) % UTC ([3]; 1 μM): 36 % UTC
cell proliferation (luminescence) % UTC ([3]; 5 μM): 29 % UTC
Yap1 mRNA in tumors, % control [4]: 60 % control
Heart weight [5]: 9 g
Kidney weight [5]: 13 g
Liver with gallbladder weight [5]: 62 g
Spleen weight [5]: 3 g
Terminal Body Weight [5]: 2790 g
BAS [6]: 0.4%
EOS [6]: 0.8%
HCT [6]: 46%
HGB [6]: 14 g/dL
LUC [6]: 0.7%
LYM [6]: 53%
MCH [6]: 23 pg
MCHC [6]: 30 g/dL
MCV [6]: 78 fL
MON [6]: 2.0%
NEU [6]: 43%
PLT [6]: 376 10^3/μL
RBC [6]: 5.9e+06 µL⁻¹
RCDW [6]: 13%
Retic [6]: 1.0%
WBC [6]: 11700 µL⁻¹
MPV [6]: 7.8 fL
URINE P/C ratio (total protein to creatinine ratio) [7]: 5
ALB [8]: 4.2 g/dL
ALP [8]: 916 IU/L
ALT [8]: 50 IU/L
AST [8]: 47 IU/L
BUN [8]: 26 mg/dL
CREA [8]: 0.8 mg/dL
GGT [8]: 59 IU/L
GLO [8]: 3.0 g/dL
GLU [8]: 70 mg/dL
HDL [8]: 87 mg/dL
LDL [8]: 50 mg/dL
TBIL [8]: 0.2 mg/dL
TG [8]: 34 mg/dL
TP [8]: 7.2 g/dL
